According to ChEMBL document CHEMBL4145522, “Design, synthesis and biological evaluation of non-secosteriodal vitamin D receptor ligand bearing double side chain for the treatment of chronic pancreatitis” (Eur J Med Chem, 2018):
The source made the active and inactive calls. The calls are words filed in the database; no cut-off is given here.

Tests used:
[1] = (§1) Antifibrotic activity against TGFbeta1 stimulated rat LTC-14 cells assessed as inhibition of collagen 1 synthesis at 0.5 uM after 24 hrs by ELISA relative to calcipotriol; format: functional; details: LTC-14, 24 h
Rattus norvegicus [2] = species on record: Rattus norvegicus; experiment: Antifibrotic activity against TGFbeta1 stimulated rat LTC-14 cells assessed as inhibition of collagen 1 level at 500 nM after 24 hrs by Western blot; format: functional
Rattus norvegicus [3] = species on record: Rattus norvegicus; experiment: Antifibrotic activity against TGFbeta1 stimulated rat LTC-14 cells assessed as inhibition of alpha-SMA level at 500 nM after 24 hrs by Western blot; format: functional
[4] = target: T1, Vitamin D3 receptor (Homo sapiens) (UniProt P11473); experiment: Transactivation of VDR (unknown origin) expressed in HEK293 cells harboring pENTER-CMV-human RXRalpha after 24 hrs by luciferase reporter gene assay; format: cell-based
T1 sequence (whole entry): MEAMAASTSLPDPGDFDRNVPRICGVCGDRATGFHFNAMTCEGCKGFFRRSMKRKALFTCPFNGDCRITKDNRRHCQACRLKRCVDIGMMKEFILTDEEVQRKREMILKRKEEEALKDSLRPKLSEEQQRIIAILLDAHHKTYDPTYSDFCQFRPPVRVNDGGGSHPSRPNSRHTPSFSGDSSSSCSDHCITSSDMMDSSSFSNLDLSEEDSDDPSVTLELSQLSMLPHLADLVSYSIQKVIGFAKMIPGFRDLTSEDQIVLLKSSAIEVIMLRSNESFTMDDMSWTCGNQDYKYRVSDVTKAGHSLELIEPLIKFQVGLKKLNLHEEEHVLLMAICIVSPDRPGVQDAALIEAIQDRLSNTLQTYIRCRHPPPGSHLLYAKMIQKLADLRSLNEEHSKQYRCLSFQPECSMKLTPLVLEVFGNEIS

Mus musculus [5] = experiment: Toxicity in caerulein induced chronic pancreatic C57BL/6J mouse model assessed as reduction in body weight at 0.5 mg/kg, po administered via gavage treated for 5 times per week measured after 3 days; format: organism-based; details: in vivo, 72 h
Rattus norvegicus [6] = species on record: Rattus norvegicus; experiment: Antifibrotic activity against TGFbeta1 stimulated rat LTC-14 cells assessed as inhibition of alpha-SMA mRNA expression at 500 nM after 24 hrs by RT-qPCR analysis; format: functional
Mus musculus [7] = experiment: Toxicity in caerulein induced chronic pancreatic C57BL/6J mouse model assessed as serum calcium levels at 0.5 mg/kg, po administered via gavage treated for 5 times per week measured after 3 days (reference value: 0.25 umol/ml); format: organism-based; details: in vivo, 72 h
[8] = target: T1, Vitamin D3 receptor (Homo sapiens); experiment: Transactivation of VDR (unknown origin) expressed in HEK293 cells harboring pENTER-CMV-human RXRalpha at 10^-8M to 10^-6M after 24 hrs by luciferase reporter gene assay; format: cell-based
Rattus norvegicus [9] = species on record: Rattus norvegicus; experiment: Antifibrotic activity against TGFbeta1 stimulated rat LTC-14 cells assessed as inhibition of collagen 1 alpha 1 mRNA expression at 500 nM after 24 hrs by RT-qPCR analysis; format: functional
Rattus norvegicus [10] = species on record: Rattus norvegicus; experiment: as §1; format: functional
[11] = MRT in C57BL/6J mouse at 20 mg/kg, po by HPLC analysis; format: ADME, organism-based; details: in vivo
[12] = AUC (0 to infinity) in C57BL/6J mouse at 10 mg/kg, iv by HPLC analysis; format: ADME, organism-based; parameters: dose 10 mg/kg, time infinity, route intravenous; details: in vivo
[13] = Half life in C57BL/6J mouse at 10 mg/kg, iv by HPLC analysis; format: ADME, organism-based; details: in vivo
Mus musculus [14] = experiment: Toxicity in caerulein induced chronic pancreatic C57BL/6J mouse model assessed as change in body weight at 0.5 mg/kg, po administered via gavage treated for 5 times per week measured after 3 days; format: organism-based; details: in vivo, 72 h
[15] = Clearance in C57BL/6J mouse at 10 mg/kg, iv by HPLC analysis; format: ADME, organism-based; details: in vivo
[16] = AUC (0 to infinity) in C57BL/6J mouse at 20 mg/kg, po by HPLC analysis; format: ADME, organism-based; parameters: dose 20 mg/kg, route oral, time infinity; details: in vivo
[17] = Half life in C57BL/6J mouse at 20 mg/kg, po by HPLC analysis; format: ADME, organism-based; details: in vivo
[18] = Oral bioavailability in C57BL/6J mouse at 20 mg/kg by HPLC analysis; format: ADME, organism-based; details: in vivo
[19] = Clearance in C57BL/6J mouse at 20 mg/kg, po by HPLC analysis; format: ADME, organism-based; details: in vivo
[20] = MRT in C57BL/6J mouse at 10 mg/kg, iv by HPLC analysis; format: ADME, organism-based; details: in vivo
Mus musculus [21] = experiment: Antifibrotic activity in caerulein induced chronic pancreatic C57BL/6J mouse model assessed as inhibition of alpha-SMA expression in interstitial area of pancreas tissue at 0.5 mg/kg, po administered via gavage treated for 5 times per week measured after 3 days by immunohistochemistry analysis; format: functional, organism-based
Mus musculus [22] = experiment: Antifibrotic activity in caerulein induced chronic pancreatic C57BL/6J mouse model assessed as inhibition of collagen deposition at 0.5 mg/kg, po administered via gavage treated for 5 times per week measured after 3 days by Masson's trichrome staining based histopathological analysis; format: functional, organism-based
Mus musculus [23] = experiment: Toxicity in caerulein induced chronic pancreatic C57BL/6J mouse model assessed as change in serum calcium levels at 0.5 mg/kg, po administered via gavage treated for 5 times per week measured after 3 days; format: organism-based; details: in vivo, 72 h
Mus musculus [24] = experiment: Antifibrotic activity in caerulein induced chronic pancreatic C57BL/6J mouse model assessed as inhibition of pancreas lesions at 0.5 mg/kg, po administered via gavage treated for 5 times per week measured after 3 days by hematoxylin and eosin staining based histopathological analysis; format: functional, organism-based

Compound: CCC(CC)(c1ccc(OS(=O)(=O)c2ccc([N+](=O)[O-])cc2)c(C)c1)c1ccc(OCC(O)C(C)(C)C)c(OCC(O)C(C)(C)C)c1 (stereo not drawn)
- inhibition at 0.5 µM [1]: 82%

Compound: CCC(CC)(c1ccc(OCCCCCCO)c(C)c1)c1ccc(OCC(O)C(C)(C)C)c(OCC(O)C(C)(C)C)c1 (stereo not drawn)
- inhibition at 0.5 µM [1]: 74%

Compound: CCC(CC)(c1ccc(OCCCCO)c(C)c1)c1ccc(OCC(O)C(C)(C)C)c(OCC(O)C(C)(C)C)c1 (stereo not drawn)
- inhibition at 0.5 µM [1]: 189%
- inhibition (Rattus norvegicus [2]): Active
- inhibition (Rattus norvegicus [3]): Active
- Activity [4]: Dose-dependent effect

Compound: CCC(CC)(c1ccc(OS(=O)(=O)c2ccc(C)cc2)c(C)c1)c1ccc(OCC(=O)C(C)(C)C)c(OCC(=O)C(C)(C)C)c1
- inhibition at 0.5 µM [1]: 85%
- inhibition (Rattus norvegicus [2]): Active
- inhibition (Rattus norvegicus [3]): Active

Compound: C=C1/C(=C\C=C2/CCC[C@]3(C)[C@@H]([C@H](C)/C=C/[C@@H](O)C4CC4)CC[C@@H]23)C[C@@H](O)C[C@@H]1O [CALCIPOTRIENE]
- Activity (Mus musculus [5]): Toxic
- inhibition (Rattus norvegicus [6]): Active
- Activity (Mus musculus [7]): 0.37 µmol/mL
- Activity [8]: Active
- inhibition (Rattus norvegicus [9]): Active
- inhibition at 0.5 µM [1]: 100%
- inhibition (Rattus norvegicus [2]): Active
- inhibition (Rattus norvegicus [3]): Active

Compound: CCC(CC)(c1ccc(OS(C)(=O)=O)c(C)c1)c1ccc(OCC(O)C(C)(C)C)c(OCC(O)C(C)(C)C)c1 (stereo not drawn)
- inhibition at 0.5 µM [1]: 8%

Compound: CCC(CC)(c1ccc(OCCCCCO)c(C)c1)c1ccc(OCC(O)C(C)(C)C)c(OCC(O)C(C)(C)C)c1 (stereo not drawn)
- inhibition at 0.5 µM [1]: 133%

Compound: CCC(CC)(c1ccc(OCC(O)CO)c(C)c1)c1ccc(OCC(O)C(C)(C)C)c(OCC(O)C(C)(C)C)c1 (stereo not drawn)
- inhibition at 0.5 µM [1]: 147%
- Activity [4]: Dose-dependent effect

Compound: CCC(CC)(c1ccc(OCCCCCCCO)c(C)c1)c1ccc(OCC(O)C(C)(C)C)c(OCC(O)C(C)(C)C)c1 (stereo not drawn)
- inhibition (Rattus norvegicus [10]): inactive

Compound: CCC(CC)(c1ccc(OCC(=O)O)c(C)c1)c1ccc(OCC(O)C(C)(C)C)c(OCC(O)C(C)(C)C)c1 (stereo not drawn)
- inhibition (Rattus norvegicus [10]): inactive

Compound: CCC(CC)(c1ccc(OS(=O)(=O)c2ccccc2)c(C)c1)c1ccc(OCC(O)C(C)(C)C)c(OCC(O)C(C)(C)C)c1 (stereo not drawn)
- inhibition at 0.5 µM [1]: 23%

Compound: CCC(CC)(c1ccc(OCCCCC(=O)O)c(C)c1)c1ccc(OCC(O)C(C)(C)C)c(OCC(O)C(C)(C)C)c1 (stereo not drawn)
- inhibition (Rattus norvegicus [10]): inactive

Compound: CCC(CC)(c1ccc(OCCO)c(C)c1)c1ccc(OCC(O)C(C)(C)C)c(OCC(O)C(C)(C)C)c1 (stereo not drawn)
- inhibition at 0.5 µM [1]: 128%
- inhibition (Rattus norvegicus [2]): Active
- inhibition (Rattus norvegicus [3]): Active

Compound: CCC(CC)(c1ccc(OCCCC(=O)O)c(C)c1)c1ccc(OCC(O)C(C)(C)C)c(OCC(O)C(C)(C)C)c1 (stereo not drawn)
- inhibition (Rattus norvegicus [10]): inactive

Compound: CCC(CC)(c1ccc(OCCCO)c(C)c1)c1ccc(OCC(O)C(C)(C)C)c(OCC(O)C(C)(C)C)c1 (stereo not drawn)
- MRT [11]: 6.59 h
- inhibition (Rattus norvegicus [6]): Active
- AUC(0-inf) [12]: 32600 ng·h/mL
- half-life [13]: 2.66 h
- Activity (Mus musculus [14]): Non-Toxic
- clearance [15]: 5.17 mL/min
- AUC(0-inf) [16]: 20600 ng·h/mL
- half-life [17]: 4.12 h
- bioavailability [18]: 31.6%
- CL/F [19]: 20.2 mL/min
- MRT [20]: 4.65 h
- inhibition (Mus musculus [21]): Active
- inhibition (Mus musculus [22]): Active
- inhibition (Rattus norvegicus [9]): Active
- inhibition at 0.5 µM [1]: 172%
- inhibition (Rattus norvegicus [2]): Active
- Activity (Mus musculus [23]): Non-Toxic
- inhibition (Rattus norvegicus [3]): Active
- Activity [4]: Dose-dependent effect
- inhibition (Mus musculus [24]): Active

Compound: CCC(CC)(c1ccc(OCC(O)CO)c(C)c1)c1ccc(OCC(O)C(C)(C)C)c(C)c1 (stereo not drawn) [LG-190178]
- inhibition (Rattus norvegicus [6]): Active
- Activity [8]: Active
- inhibition (Rattus norvegicus [9]): Active
- inhibition at 0.5 µM [1]: 97%
- inhibition (Rattus norvegicus [2]): Active
- inhibition (Rattus norvegicus [3]): Active

Compound: CCC(CC)(c1ccc(OCCCCCC(=O)O)c(C)c1)c1ccc(OCC(O)C(C)(C)C)c(OCC(O)C(C)(C)C)c1 (stereo not drawn)
- inhibition (Rattus norvegicus [10]): inactive

Compound: CCC(CC)(c1ccc(OS(=O)(=O)c2ccc(C)cc2)c(C)c1)c1ccc(OCC(O)C(C)(C)C)c(OCC(O)C(C)(C)C)c1 (stereo not drawn)
- inhibition at 0.5 µM [1]: 137%

Compound: CCC(CC)(c1ccc(OCCCCCCC(=O)O)c(C)c1)c1ccc(OCC(O)C(C)(C)C)c(OCC(O)C(C)(C)C)c1 (stereo not drawn)
- inhibition (Rattus norvegicus [10]): inactive
